# Measurements from patent publication US11060066B2, “Human pluripotent stem cell-based models for predictive developmental neural toxicity” (priority 2014, dated 2021).
# Test system: 3D neural constructs
# Type: cell-based, human
# Procedure: For toxicity screening experiments, cells were seeded as described above (Examples 1 and 2), but with 65,000 cells/well for ECs+MSCs (also 5:1 ratio) and 15,000 cells/well for microglia/macrophage precursors. Neural constructs were treated with non-toxic or toxic compounds starting at day 14, with media exchanged every 2 days. The following screening protocol was developed by the Thomson lab. Toxic chemicals (FIG. 10E) were chosen based on previous literature support for neurotoxicity (Adams et al., Neurotoxicol Teratol 15(3):193-202 (1993); Cooper et al., Science 280(5369):1603-1607 (1998); Crofton et al., ALTEX-Altern Anim Exp 28(1):9-15 (2011); Eskes et al. (2003); Grandjean et al., Lancet Neurol. 13:330 (2014); Lidsky (2003); Radio et al., Neurotoxicol Teratol 32(1):25-35 (2010); Zurich (2002)). […]
# After reverse transcription, RNA is removed by RNaseA and RNaseH treatment. […] The indexed cDNA libraries were pooled and sequenced on an Illumina HiSeq2500 with a single 51 bp read and a 10 bp index read.
# RSEM expected read counts for each gene were determined by median normalization (utilizing the median normalization function within EB Seq—version 1.5.3) (Leng et al., Bioinformatics 29(8):1035-1043 (2013)). […]
smiles,measurement,setting,value
CCCCCCCC/C=C\CCCCCCCC(=O)O [oleic acid],SVM prediction as toxic or non-toxic (control),,neurotoxin
same,SVM probability of being toxic (ranking of blinded compounds),human,"higher probability of being toxic than L-741,626 and Ouabain"
